The target of the experiment is T1, BRD9 (Homo sapiens, UniProt Q9H8M2).
T1 sequence (Q9H8M2 1-597): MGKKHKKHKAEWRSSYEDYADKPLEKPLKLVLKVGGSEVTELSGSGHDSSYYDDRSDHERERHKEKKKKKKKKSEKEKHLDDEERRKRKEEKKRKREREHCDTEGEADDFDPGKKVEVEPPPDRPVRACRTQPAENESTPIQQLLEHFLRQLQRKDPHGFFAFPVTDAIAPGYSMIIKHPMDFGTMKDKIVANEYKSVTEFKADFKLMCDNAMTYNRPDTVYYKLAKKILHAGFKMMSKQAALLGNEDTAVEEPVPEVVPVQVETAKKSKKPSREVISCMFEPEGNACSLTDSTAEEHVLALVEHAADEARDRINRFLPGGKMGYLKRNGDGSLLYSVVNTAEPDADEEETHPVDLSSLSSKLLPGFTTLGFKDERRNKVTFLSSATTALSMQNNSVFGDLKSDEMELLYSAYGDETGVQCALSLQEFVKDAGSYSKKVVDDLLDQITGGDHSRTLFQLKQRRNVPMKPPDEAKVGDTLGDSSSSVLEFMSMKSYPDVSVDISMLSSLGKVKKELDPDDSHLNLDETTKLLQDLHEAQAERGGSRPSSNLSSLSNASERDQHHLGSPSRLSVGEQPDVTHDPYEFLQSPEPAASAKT
Put plainly: Degradation of BRD9 (IF), immunofluorescence in MV4-11 cells, 24 hours (Assay Protocol 2). Type of experiment: cell-based. Details: A suspension of MV4-11 cells (ATCC CRL-9591) was prepared; host or cells: MV4-11. As to conditions: BRD9 degradation; for DC50: Assay protocol 2, read-out: DC50; for Dmax: MV4-11, Assay protocol 2, read-out: Dmax. A digest of the protocol: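 % BRD9 remaining, scaled between DMSO (high) and 100 nM CFT-8634 (low) control wells, derives from mean Alexa 647 contrast in central nuclei by high-content imaging. MV4-11 cells had 24 h compound exposure at 37° C. before PFA fixation, Triton permeabilisation and anti-BRD9 E4Q3F immunostaining.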

Turning to `CCC[C@H]1c2cccc(CN3CCN(Cc4c(OC)cc(-c5cn(C)c(=O)c(C)c5C)cc4OC)CC34CC4)c2CCN1C(=O)/C(C#N)=C/C(C)(C)C` (single isomer, unassigned) [Compound C100, (E/Z)-2-(5-((7-(2,6-dimethoxy-4-(1,4,5-trimethyl-6-oxo-1,6-dihydropyridin-3-yl)benzyl)-4,7-diazaspiro[2.5]octan-4-yl)methyl)-1-propyl-1,2,3,4-tetrahydroisoquinoline-2-carbonyl)-4,4-dimethylpent-2-enenitrile], the DC50 is < 1.25 nM and the Dmax is > 75%.
The like results for `CCC[C@@H]1c2cccc(CN3CCN(Cc4c(OC)cc(-c5cn(C)c(=O)c(C)c5C)cc4OC)CC34CC4)c2CCN1C(=O)/C(C#N)=C/C(C)(C)C` (single isomer, unassigned) [Compound C101, (E/Z)-2-(5-((7-(2,6-dimethoxy-4-(1,4,5-trimethyl-6-oxo-1,6-dihydropyridin-3-yl)benzyl)-4,7-diazaspiro[2.5]octan-4-yl)methyl)-1-propyl-1,2,3,4-tetrahydroisoquinoline-2-carbonyl)-4,4-dimethylpent-2-enenitrile] were, in that order, 25 to 1000 nM and 40 to 70%.
For `COc1cc(-c2cn(C)c(=O)c(C)c2C)cc(OC)c1CN1CCN(Cc2cccc3c2CCN(C(=O)/C(C#N)=C/C(C)(C)CF)C3C(C)C)CC12CC2` (single isomer, unassigned) [Compound C102, (E/Z)-2-(5-((4-(2,6-dimethoxy-4-(1,4,5-trimethyl-6-oxo-1,6-dihydropyridin-3-yl)benzyl)-4,7-diazaspiro[2.5]octan-7-yl)methyl)-1-isopropyl-1,2,3,4-tetrahydroisoquinoline-2-carbonyl)-5-fluoro-4,4-dimethylpent-2-enenitrile] the same measures were 25 to 1000 nM and 40 to 70%.
The like results for `COc1cc(-c2cn(C)c(=O)c(C)c2C)cc(OC)c1CN1CCN(Cc2cccc3c2CCN(C(=O)/C(C#N)=C/C(C)(C)CF)[C@@H]3C(C)C)CC12CC2` (single isomer, unassigned) [Compound C103, (E/Z)-2-(5-((4-(2,6-dimethoxy-4-(1,4,5-trimethyl-6-oxo-1,6-dihydropyridin-3-yl)benzyl)-4,7-diazaspiro[2.5]octan-7-yl)methyl)-1-isopropyl-1,2,3,4-tetrahydroisoquinoline-2-carbonyl)-5-fluoro-4,4-dimethylpent-2-enenitrile] were, in that order, < 1.25 nM and > 75%.
With `CC[C@H]1c2cccc(CN3CCN(Cc4c(OC)cc(-c5cn(C)c(=O)c(C)c5C)cc4OC)C4(CC4)C3)c2CCN1C(=O)/C(C#N)=C/C(C)(C)CF` (single isomer, unassigned) [Compound C104, (E/Z)-2-(5-((4-(2,6-dimethoxy-4-(1,4,5-trimethyl-6-oxo-1,6-dihydropyridin-3-yl)benzyl)-4,7-diazaspiro[2.5]octan-7-yl)methyl)-1-ethyl-1,2,3,4-tetrahydroisoquinoline-2-carbonyl)-6-fluoro-4,4-dimethylpent-2-enenitrile], the DC50 is 25 to 1000 nM and the Dmax fell in the range of 40 to 70%.
`CC[C@@H]1c2cccc(CN3CCN(Cc4c(OC)cc(-c5cn(C)c(=O)c(C)c5C)cc4OC)C4(CC4)C3)c2CCN1C(=O)/C(C#N)=C/C(C)(C)CF` (single isomer, unassigned) [Compound C105, (E/Z)-2-(5-((4-(2,6-dimethoxy-4-(1,4,5-trimethyl-6-oxo-1,6-dihydropyridin-3-yl)benzyl)-4,7-diazaspiro[2.5]octan-7-yl)methyl)-1-ethyl-1,2,3,4-tetrahydroisoquinoline-2-carbonyl)-6-fluoro-4,4-dimethylpent-2-enenitrile]: the DC50 was < 1.25 nM and the Dmax was > 75%.
Take `COc1cc(-c2cn(C)c(=O)c(C)c2C)cc(OC)c1CN1CCCN(Cc2ccc3c(c2)[C@@H](C)N(C(=O)/C(C#N)=C/C(C)(C)C)CC3)CC1` (single isomer, unassigned) [Compound C107]: the DC50 fell in the range of 10 to 25 nM and the Dmax fell in the range of 40 to 70%.

Broadly, the DC50 is the concentration giving 50% degradation. Usually Dmax stands for the greatest extent of degradation seen.

The values are drawn from US20260092061A1, “COMPOUNDS FOR TARGETED PROTEIN DEGRADATION” (Amphista Therapeutics Limited, priority 2022, published 2026).
